“Also recorded” adds a separate entry of the source. Blank lines part the entries; values can stand above or below the compound they belong to.
Tests used:
SHMT1 = molecular target: T1, SHMT1 (Homo sapiens, UniProt P34896); assay: SHMT1 inhibition (Table 2); type: biochemical
T1 sequence (P34896 1-483): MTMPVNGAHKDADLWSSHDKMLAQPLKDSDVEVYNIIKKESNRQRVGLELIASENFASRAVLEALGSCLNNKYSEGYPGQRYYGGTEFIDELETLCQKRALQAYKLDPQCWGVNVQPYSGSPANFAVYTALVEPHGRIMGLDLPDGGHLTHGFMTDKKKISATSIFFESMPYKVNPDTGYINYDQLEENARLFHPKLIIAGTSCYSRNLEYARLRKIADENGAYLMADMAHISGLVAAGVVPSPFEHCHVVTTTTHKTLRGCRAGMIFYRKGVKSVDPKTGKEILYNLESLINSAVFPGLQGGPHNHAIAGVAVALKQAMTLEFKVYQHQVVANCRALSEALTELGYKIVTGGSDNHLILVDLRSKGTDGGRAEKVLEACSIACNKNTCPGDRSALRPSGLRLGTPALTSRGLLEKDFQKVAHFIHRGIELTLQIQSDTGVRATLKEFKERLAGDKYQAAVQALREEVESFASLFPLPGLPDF

SHMT2 = molecular target: T2, SHMT2 (Homo sapiens, UniProt P34897); assay: SHMT2 inhibition (Table 2); type: biochemical
T2 sequence (P34897 30-504): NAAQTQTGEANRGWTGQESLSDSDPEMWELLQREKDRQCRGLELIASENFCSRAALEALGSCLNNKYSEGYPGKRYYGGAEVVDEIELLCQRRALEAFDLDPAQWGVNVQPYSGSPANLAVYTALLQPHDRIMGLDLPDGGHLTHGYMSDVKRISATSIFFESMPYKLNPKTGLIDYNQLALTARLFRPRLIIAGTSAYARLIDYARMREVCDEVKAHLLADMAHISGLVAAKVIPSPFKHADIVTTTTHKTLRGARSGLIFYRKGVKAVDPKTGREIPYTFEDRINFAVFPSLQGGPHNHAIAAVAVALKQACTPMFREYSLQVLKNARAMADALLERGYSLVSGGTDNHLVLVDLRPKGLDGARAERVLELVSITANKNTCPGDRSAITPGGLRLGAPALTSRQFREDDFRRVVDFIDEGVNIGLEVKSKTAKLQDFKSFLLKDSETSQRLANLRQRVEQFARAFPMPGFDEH

HCT116 cells [1] = assay: NAD2H labeling from [2,3,3-2H]serine in cultured cells; type: cell-based
Method: (§1) Adherent cells. Cells were seeded in 6 well plates overnight and then were treated with ETC inhibitors. Serine-free DMEM with 10% dialyzed FBS was supplemented with 400 µM [2,3,3, 2H]serine. Medium was replaced by the isotope tracing medium with corresponding drugs, and cells were incubated for 3 h. Medium was aspirated, and metabolism was quenched with extraction buffer (40:40:20 acetonitrile:methanol: water with 0.5% formic acid; 40 μl of extraction solvent per 1 μl packed cell volume)(Lu et al., 2018). Plates were placed on dry ice for 10 mins, and thereafter the extraction solution was neutralized with 15% NH4HCO3 (70 μl for 800 μl extraction buffer). Cells were then scraped off from plates by using a cell lifter (Corning 3008), transferred into Eppendorf tubes and centrifuged in a benchtop microfuge at maximum speed for 30 min at 4° C. Supernatant was transferred to LC-MS vials for analysis.
LC-MS. […] Solvent A is 95:5 water: acetonitrile with 20 mM ammonium acetate and 20 mM ammonium hydroxide at pH 9.4, and solvent B is acetonitrile. The gradient was 0 min, 85% B; 2 min, 85% B; 3 min, 60% B; 9 min, 60% B; 9.5 min, 35% B; 13 min, 5% B; 15.5 min, 5% B; 16 min, 85% B; 20 min, stop run. Injection volume was 15 μL. The Q-Exactive Plus mass spectrometer was operated in negative ion mode scanning from m/z 70-1000 with a resolution (at m/z 200) of 140,000 (AGC target 3e6, Maximum IT 200 ms) (Wang et al., 2019). A second scan from m/z 640-765 with a resolution (at m/z 200) of 35,000 (AGC target 5e5, maximum IT 200 ms) was used to measure NAD(P), NAD(P)H, and their labeling. The purpose of the second scan was to enhance sensitivity for NAD(P)(H) by restricting the range of ions in the orbitrap and to maximize the accuracy of isotope ratios by decreasing the scan range and mass resolution (Su et al., 2017).
Calculation of 2H-serine contribution to malate, aspartate, and NADH: For malate and aspartate, the 2H-labeling fraction was measured directly (fractional size of 2H-peak relative to sum of all peaks, after isotope correction as above). For NADH, the 2H-labeling fraction was measured based on the active hydride labeling (x), which was determined from the labeling pattern of NAD+ and NADH by least square fitting in MATLAB of the observed experimental data (after natural isotope correction) to the below vectors (Liu et al., 2016a).

HCT116 xenograft tumors = assay: HCT116 xenograft tumors, metabolomics and [2,3,3-2H]serine tracing; type: in vivo, mice
Method: Mouse Xenograft and allograft. For tumor xenograft tracing experiments, 6- to 7-week-old male CD1/nude mice were injected in the rear flanks with HCT-116 (1×10^6 cells in 100 μL 1:1 PBS:Matrigel). For tumor allograft tracing experiment, 6- to 8-wk-old male C57BL6 mice were injected in the rear flank with KrasLSL.G12D/+x p53R172H/+x PdxCretg/+ pancreatic tumor tissue suspension (200 μL 1:1 DMEM:Matrigel). Jugular vein catheterization surgery was performed when tumor size reached 250 mm3 [volume=1/2 (length×width×height)]. […] Tracing experiments were performed after 1 week of post-surgery monitoring. Tumors were removed and immediately clamped to aluminum foil using Wollenberger clamp and stored in liquid nitrogen. For Long term storage, tissues were kept in −80° C. until future sample preparation.
Metabolites extraction from tissue, tumors and serum. Tissues and tumors were collected from mice and immediately clamped into liquid nitrogen using Wollenberger clamp, tissue were stored in −80° C. Frozen tissues were transferred into 2 ml Eppendorf tubes, which are precooled on dry ice, and pulverized by using cyromill. The resulting tissue powder was weighed (around 10 mg) and mixed well by vortexing in extraction buffer (40 μL extraction buffer per mg tissue). The extraction solution was neutralized with NH4HCO3 as above and centrifuged in a microfuge at maximum speed for 30 min at 4° C. Supernatant was transferred to LC-MS vials for analysis.
IACS-10759 is a potent mitochondrial complex I inhibitor with efficacy in inhibiting tumor growth and inducing apoptosis in models of brain cancer and acute myeloid leukemia. Molina, J. R. et al., Nat. Med. 24, 1036-1046 (2018). […] To check whether circulating serine contributes NADH when respiration is impaired in vivo, [2,3,3-^2H]serine was infused into tumor bearing mice.

MTHFD2 = molecular target: T3, MTHFD2 (Homo sapiens, UniProt P13995); assay: Enzymatic assay for MTHFD2 with increasing NADH; type: biochemical
T3 construct: purchased Raze Therapeutics (gift, not a catalogue product)
T3 sequence (P13995 36-350): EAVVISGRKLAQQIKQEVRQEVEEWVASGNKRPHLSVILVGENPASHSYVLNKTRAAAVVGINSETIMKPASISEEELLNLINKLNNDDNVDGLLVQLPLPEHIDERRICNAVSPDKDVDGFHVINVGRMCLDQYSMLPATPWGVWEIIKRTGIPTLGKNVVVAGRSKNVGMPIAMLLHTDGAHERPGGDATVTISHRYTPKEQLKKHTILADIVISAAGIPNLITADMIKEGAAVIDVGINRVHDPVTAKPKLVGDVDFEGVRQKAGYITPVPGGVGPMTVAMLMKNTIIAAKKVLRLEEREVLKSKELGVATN
Method: Enzymatic Assay for MTHFD2. NAD (Sigma N0632), NADH (Sigma N8129) and 5, 10-meTHF (Schircks Laboratories, 16.226) solution were freshly prepared each time in water. Reaction mixtures consisted of 50 mM KH2PO4 pH 7.4, 5 mM dithiothreitol (DTT), 5% DMSO, and 0.005 mg/mL MTHFD2 (obtained from Raze Therapeutics), and NAD and NADH as indicated in the Figures. Reaction mixtures were incubated for 5 min at 37° C. before initiation of the reaction by addition of 5,10-meTHF to a final concentration of 0.4 mM using multichannel. The plate was mixed for 5 s in the plate reader (Biotek Synergy HT), and the rate of change in absorbance at 340 nm due to NADH accumulation was recorded over the duration of linear NADH accumulation.
Enzymatic Assay for MDH. NAD and NADH solutions were freshly prepared in water; malate solution was prepared in 50 mM Tris-HCl and adjusted pH to 7.6 with 10 M KOH. […] The plate was mixed for 5 s in the plate reader, and absorbance at 340 nm recorded as above.
Enzymatic assay for PDH and KGDH: Pyruvate dehydrogenase and alpha-ketoglutarate dehydrogenase solutions were freshly prepared to a concentration 0.075 unit/ml with buffer containing 20 mM sodium phosphate and 1 mM MgCl2, pH7.2. […] The plate was mixed for 5 s in the plate reader, and absorbance at 340 nm recorded as above.

liver NADH/NAD ratio = assay: Serine/metformin drinking water, liver metabolomics; type: in vivo, mice; conditions: 5% serine or 0.25% metformin drinking water for 2 weeks
HCT116 cells [2] = assay: Cell proliferation assay, HCT116; type: cell-based
Method: (§2) Cell Proliferation Assays. Cells were seeded in seeded in 96 well plates (Corning 3603) for overnight attachment. Medium (with or without drugs) was changed next day, and cell numbers were recorded using Thermofisher CyQUANT kit.

C2C12 cells = C2C12 cells treated with metformin, serine catabolism inhibition; type: cell-based; conditions: C2C12, 5 mM metformin, SHIN1 250 nM
Method: as §1, §2

[3] = IACS-10759 10 mg/kg gavage every day for 7 days, CD-1 nude mice
[4] = cultured cells, complex I inhibitor added

IC50 (SHMT1): 0.013 µM
IC50 (SHMT2): 0.066 µM
SMILES: Cc1n[nH]c2c1C(c1cc(N3CCCC3)cc(C(F)(F)F)c1)(C(C)C)C(C#N)=C(N)O2 (centres unmarked) [HK-X1]

IC50 (SHMT1): 0.593 µM
IC50 (SHMT2): 1.19 µM
SMILES: Cc1n[nH]c2c1C(c1cc(Cl)cc(Cl)c1)(C1CCC1)C(C#N)=C(N)O2 (centres unmarked) [HK-10]

IC50 (SHMT1): 0.067 µM
IC50 (SHMT2): 0.131 µM
SMILES: Cc1n[nH]c2c1C(c1cc(Cl)cc(Cl)c1)(C(C)C)C(C#N)=C(N)O2 (centres unmarked) [HK-14]

SMILES: CC1=C(C)C(=O)C(C)=C(C)C1=O [duroquinone]
fractional contribution of serine to NADH (HCT116 cells [1]; added to metformin-treated cells (HCT116, 5 mM metformin)): decreased

SMILES: Cc1nc(-c2nc(-c3ccc(OC(F)(F)F)cc3)no2)nn1Cc1cccc(N2CCC(S(C)(=O)=O)CC2)c1 [IACS-10759]
NADH/NAD ratio of tumors (HCT116 xenograft tumors; [3]): increased
intra-tumor lactate level (HCT116 xenograft tumors; [3]): increased
2H-malate labeling from [2,3,3-2H]serine in tumors (HCT116 xenograft tumors; IACS-10759 10 mg/kg, 2.5 hours serine infusion): increased

NADH level up to which MTHFD2 maintains full activity (MTHFD2; NADH as competitive (product) inhibitor, adequate NAD): up to 200 μM
sensitivity of MTHFD2 to NADH, less than PDH, KGDH and malate dehydrogenase (MTHFD2; product inhibition by NADH): at least 10 fold
SMILES: NC(=O)C1=CN([C@@H]2O[C@H](COP(=O)(O)OP(=O)(O)OC[C@H]3O[C@@H](n4cnc5c(N)ncnc54)[C@H](O)[C@@H]3O)[C@@H](O)[C@H]2O)C=CC1 [NADH]

IC50 (SHMT1): 0.02 µM
IC50 (SHMT2): 0.035 µM
SMILES: Cc1n[nH]c2c1C(c1cc(Cl)cc(C(F)(F)F)c1)(C(C)C)C(C#N)=C(N)O2 (centres unmarked) [HK-15]

SMILES: [H]/N=C(/N)N/C(=N/[H])NCCc1ccccc1 [phenformin]
fractional contribution of serine to NADH (HCT116 cells [1]; [4]): dramatically elevated

SMILES: CN(C)C(=N)N=C(N)N [metformin, reference compound]
fractional contribution of serine to NADH (HCT116 cells [1]; [4]): dramatically elevated
NADH/NAD ratio in liver (liver NADH/NAD ratio): increased; also recorded: significantly increase

SMILES: N[C@@H](CO)C(=O)O [serine]
NADH/NAD ratio in liver (liver NADH/NAD ratio): significantly increase
NADH/NAD ratio in liver (liver NADH/NAD ratio; listed as Serine): increased

SMILES: Cc1[nH]nc2c1C(c1cc(CO)cc(-c3ccccc3)c1)(C(C)C)C(C#N)=C(N)O2 (centres unmarked) [HK-X2 (SHIN1)]
cell proliferation / growth (HCT116 cells [2]; HCT116, in the presence of metformin): enhances growth; also recorded: augmented proliferation
cell proliferation / growth (HCT116 cells [2]; HCT116, in the presence of phenformin or rotenone): enhances growth; also recorded: augmented proliferation
cell proliferation (HCT116 cells [2]; HCT116, standard tissue culture conditions): decreased cell proliferation
cell growth (HCT116 cells [2]; HCT116 WT, hypoxia (0.5% O2), low doses of SHIN1): modestly increased cell growth
aspartate (C2C12 cells): enhances aspartate
cell growth / tolerance of metformin (C2C12 cells): restores; also recorded: better tolerated metformin

SMILES: N#C/C(=C\c1cn(-c2ccccc2)c2ccccc12)C(=O)O [UK5099]
block of the pyruvate effect (rescue of NADH phenotypes) (HCT116 cells [1]; metformin-treated cells with pyruvate): does not block; also recorded: not blocked
